{"source": "patent US9163032B2", "about": "“Esters of DCPLA and methods of treatment using the same” (Blanchette Rockefeller Neurosciences Institute, priority 2011, dated 2015)", "key": {"[1]": {"system": "Phosphatidylserine (C2) Binding Site", "assay": "3H-DCPLA-ME binding to rat brain slices with C1 and C2 competitors (film-autoradiography)", "details": "rat brain slices", "procedure": "To determine the binding site of DCPLA-ME, ^3H-DCPLA-ME was incubated with rat brain slices in the absence and presence of known C1 and C2 competitors. More specifically, rat brain sections were fixed with formaldehyde, sliced, and incubated with (1)^3H-DCPLA-ME alone; (2)^3H-DCPLA-ME with DCPLA; (3)^3H-DCPLA-ME with Phorbol ester; or (4)^3H-DCPLA-ME and Bryostatin 1. After incubation, the slices were washed with a buffer made of 130 mM NaCl, 5 mM MgCl, 5 mM KCl, 1 mM EGTA, and 0.1% bovine serum albumin in 10 mM HEPES-NaOH, pH 7.4, dried, and analyzed with film-autoradiography."}, "[2]": {"system": "cultured primary rat hippocampal neurons", "assay": "Neuroprotection against ASPD induced toxicity, MTT assay, primary neurons", "assay_type": "cell-based", "details": "50 nM ASPD, 20 hr, activator 0.27 nM", "procedure": "(§1) Viability of cells was measured by MTT assay. MTT (i.e., 3-(4,5-dimethylthiazol-2-yl)-2,5-diphenyltetrazolium bromide) is a tetrazolium salt that is cleaved to formazan by the succinate dehydrogenase, which is only active in viable cells. After solubilization of the formazan, the amount of dye can be quantified with a microplate reader at 570 nm along with a reference of 630 nm. For the MTT assay, 5×10^4 primary rat hippocampal neurons from 18-day-old embryonic Sprague-Dawley rat brains or SH-SY5Y cells were plated on each well of 24-well plates coated with poly-D-lysine. After treatment, the cells were washed with 1× PBS and were incubated with 200 μl of 1 mg/ml MTT solution (Sigma, USA) at 37° C. for 2 hr. Then the MTT-solution was removed and the cells were lysed with 200 μl isopropanol containing 0.04 M HCl and […] for 10 min. Finally, the reading was taken at 570 nm and 630 nm. All the samples were done in triplicate and the data were represented as the percentage of control.\nBryostatin 1, DCPLA, and DCPLA-ME were tested against ASPD-induced cytotoxicity to determine their neuroprotective efficacy."}, "[3]": {"system": "primary human cortical neurons", "assay": "40 day culture of human primary cortical neurons: survival, synapses, branching", "assay_type": "cell-based", "details": "0.27 nM", "procedure": "To examine the effects of PKC-ε activation, cultured human cortical neurons in serum-free artificial medium were exposed to 100 nM DCPLA-ME added every three days, along with 50% medium replacement, for 40 days. More specifically, human primary cortical neurons were grown in Neuronal Medium (ScienCell Cat No#1521) containing neuronal growth supplement (NGS) (Sciencell Cat No#1562).\nCells were plated on poly-l-lysine (0.001%) coated plates at a density of >10000 cells/cm2. Half of the media was replaced by new media every 3 days. DCPLA-ME was dissolved in 100% ethanol and added at 100 nM final concentration. Fresh DCPLA-ME (100 nM) was added every 3 days during media change. The experiments were continued for 40 days.\nHuman primary neurons (ScienCell Research Laboratories, USA) were thawed and plated on poly-L-lysine coated plates at a density of 10,000 cells per cm^2 and were maintained in neuronal medium (DMEM+high glucose+neuronal growth supplement, ScienCell Research Laboratories, USA) following the recommended method. Primary human neurons were then treated with either DCPLA-ME (100 nM) or bryostatin 1 (0.27 nM) for 40 days. Fresh drug was added every third day with 50% media change."}, "[4]": {"system": "rat primary hippocampal neurons", "assay": "Neurotoxic effect of Aβ1-42 oligomers, MTT viability assay", "assay_type": "cell-based", "details": "20 hr", "procedure": "Amylospheroids (ASPDs) and Aβ monomers were prepared following Hoshi, M., et al. (2003) Proc Natl Acad Sci USA 100, 6370-6375, and Noguchi, A., et al. (2009) J Biol Chem 284, 32895-32905. Briefly, Aβ1-42 was dissolved in 1,1,1,3,3,3-hexafluoro-2-propanol and incubated overnight at 4° C. and then 3 hr at 37° C. The dissolved Aβ1-42 was then lyophilized in 1.5 ml polypropylene centrifuge tubes at 40 nmol/tube concentration. For preparing the ASPDs, the lyophilized Aβ was dissolved in phosphate buffered saline (PBS) without Ca^2+ or Mg^2+ at less than 50 μM concentration and rotated for 14 hr at 4° C. After incubation, the Aβ solution was purified using a 100 kDa molecular mass cutoff filter (Amicon Ultra, Millipore) and the high-molecular weight fraction was saved to obtain the most toxic ASPDs. Aβ derived diffusible ligands (ADDLs) were produced as previously described. See Lambert, M. P et al., Proc. Natl. Acad. Sci. USA, 1998, 95: 6448-6453. Briefly, Aβ1-42 was solubilized at 5 mM in dimethyl sulfoxide, diluted to 100 μM in F12k medium and was incubated at 4° C. for 24 hr. The solution was centrifuged at 14000×g for 10 min at 4° C. and the supernatant was used as the ADDLs.\nas §1\nTo assess the neurotoxic effect of different sized oligomers, rat primary hippocampal neurons were treated with variable concentrations of these Aβ1-42 species for 20 hr. Viability of the treated cells was compared to untreated cells using the MTT assay described above."}, "[5]": {"system": "PKC-ε", "assay": "PKC-ε translocation to membrane in SH-SY5Y neuroblastoma cells (Western Blot)", "assay_type": "cell-based, human", "details": "1 μM (20-fold higher than ASPD), relative to control", "procedure": "(§2) Cells were harvested in homogenizing buffer containing 10 mM Tris-Cl (pH 7.4), 1 mM PMSF (phenylmethylsulfonyl fluoride), 1 mM EGTA, 1 mM EDTA, 50 mM NaF, and 20 μM leupeptin, and were lysed by sonication. The homogenate was centrifuged at 100,000×g for 15 min at 4° C. to obtain the cytosolic fraction (supernatant) and membrane (pellet). The pellet was resuspended in the homogenizing buffer by sonication. For whole cell protein isolation from primary neurons, the homogenizing buffer contained 1% Triton X-100. Protein concentration was measured using the Coomassie Plus (Bradford) Protein Assay kit (Pierce, USA). Following quantification, 20 μg of protein from each sample was subjected to SDS-PAGE analysis in a 4-20% gradient Tris-Glycine gel (Invitrogen, USA). The separated protein was then transferred to a nitrocellulose membrane. The membrane was blocked with 5% BSA at room temperature for 15 min and was incubated with primary antibody overnight at 4° C. After the incubation, it was washed three times with TBS-T (Tris Buffered Saline-Tween 20) and further incubated with alkaline phosphatase conjugated secondary antibody (Jackson Immunoresearch Laboratories, USA) at 1:10000 dilution for 45 min. The membrane was finally washed three times with TBS-T and developed using the 1-step NBT-BCIP substrate (Pierce, USA). The blot was imaged in an ImageQuant RT-ECL (GE Life Sciences, Piscataway, N.J.) and densitometric quantification was performed using IMAL software (Blanchette Rockefeller Neurosciences Institute, Morgantown, W. Va.). For translocation assays, PKC activation was represented as the percentage of total protein in the membrane (membrane/cytosol+membrane)."}, "[6]": {"system": "synaptophysin", "assay": "Synaptophysin expression in primary hippocampal neurons (immunofluorescence, Western Blot)", "assay_type": "cell-based, rat", "details": "1 μM, 20 hr", "procedure": "(§3) Cells were grown in two chambered slides (Nunc, USA) at low density. For immunofluorescence staining, the cells were washed with PBS (pH 7.4) and fixed with 4% paraformaldehyde for 4 min. Following fixation, the cells were blocked and permeabilized with 5% serum and 0.3% Triton X-100 in 1×PBS for 30 min. Cells were washed three times with 1×PBS and incubated with primary antibodies for 1 hr at 1:100 dilution. After the incubation, the slides were again washed three times in 1×PBS and were incubated with the FITC anti-mouse IgG and Rhodamine anti-rabbit IgG for 1 hr at 1:400 dilution. The cells were further washed and stained with DAPI (4′,6-diamidino-2′-phenylindole, dihydrochloride) (Thermo Scientific, USA) to stain the nucleus. Finally, the slides were washed and mounted in Pro Long Gold antifade mounting solution (Invitrogen, USA) and were viewed under a LSM 710 Meta confocal microscope (Zeiss) at 350 nm, 490 nm, and 540 nm excitation and 470 nm, 525 nm, and 625 nm emission for DAPI, FITC, and Rhodamine respectively. Six individual fields at 63× oil lens magnification were analyzed for the mean fluorescence intensity (MFI) in each channel.\nas §2\n(§4) To estimate the synaptic damage caused by the ASPDs on primary hippocampal neurons, the expression of synaptophysin (a presynaptic marker) and PSD-95 (a postsynaptic marker) was measured by immunofluorescence staining. […] Following a 20 hr incubation period, the cells were stained for nucleus, PSD-95, and synaptophysin. Expression levels were calculated as the change of percentage in mean fluorescence intensity compared to untreated cells.\n(§5) Primary neurons, treated and untreated, were immunostained for MAP-2, synaptophysin, and PSD-95 to determine the synaptic integrity. […] Following a 20 hr incubation period, the cells were stained for MAP-2, PSD-95, and synaptophysin as described above."}, "[7]": {"system": "PSD-95", "assay": "PSD-95 expression in primary hippocampal neurons (immunofluorescence)", "assay_type": "cell-based, rat", "details": "1 μM, 20 hr", "procedure": "as §3, §4, §5"}}, "note": "Values joined by “and” are separate entries in the source; they are usually repeats but may differ in a detail not shown here. Equal entries are not always repeated.", "data": [{"molecule": "CCC/C=C/C=C/C(=O)O[C@H]1/C(=C/C(=O)OC)C[C@H]2C[C@H]([C@@H](C)O)OC(=O)C[C@H](O)C[C@@H]3C[C@H](OC(C)=O)C(C)(C)[C@](O)(C[C@@H]4C/C(=C/C(=O)OC)C[C@H](/C=C/C(C)(C)[C@]1(O)O2)O4)O3", "note": "[Bryostatin 1]", "values": [{"measurement": "3H-DCPLA-ME binding, 30 nM competitor", "setting": "[1]; 30 nM competitor", "value": 100, "unit": "%"}, {"measurement": "3H-DCPLA-ME binding, 1 μM competitor", "setting": "[1]; 1 μM competitor", "value": 77, "unit": "%"}, {"measurement": "viability of ASPD-treated primary neurons", "setting": "[2]", "value": "73.23±3.6", "unit": "%"}, {"measurement": "co-localized staining of PSD-95 and synaptophysin in puncta", "setting": "[3]; 30 day old neurons", "value": "increased co-localized staining"}, {"measurement": "Immunostaining of PSD-95 and synaptophysin from Western blots", "setting": "[3]; 40 days", "value": "significantly higher"}]}, {"molecule": "ADDL: Aβ derived diffusible ligands prepared from Aβ1-42, containing 6.5 monomers on average", "values": [{"measurement": "Viability of primary neuron", "setting": "[4]; 50 nM", "value": "91.15 ± 1.44 % of control"}, {"measurement": "Viability of primary neuron", "setting": "[4]; 500 nM", "value": "79.01 ± 11.32 % of control"}, {"measurement": "Viability of primary neuron", "setting": "[4]; 1000 nM (1 μM)", "value": "50.98±3.8 % of control and 49.02 ± 7.26 % of control"}, {"measurement": "PKC-ε membrane translocation", "setting": "[5]", "value": "80.82±4.025", "unit": "%"}, {"measurement": "synaptophysin mean fluorescence intensity", "setting": "[6]", "value": "75.64±4.84 % of control"}]}, {"molecule": "Aβ Monomer: monomeric Aβ1-42", "values": [{"measurement": "PKC-ε membrane translocation", "setting": "[5]", "value": "did not affect translocation"}, {"measurement": "synaptophysin mean fluorescence intensity", "setting": "[6]", "value": "did not change"}, {"measurement": "PSD-95 expression", "setting": "[7]", "value": "did not change"}]}]}
